Experimental data published in US7179792B2, “Combination product of a 1,4-benzothiepine 1,1-dioxide compound with at least one other active ingredient and the use of the product” (Sanofi-Aventis Deulschland GmbH, priority 2001, dated 2007).

Tested on: Male Syrian hamsters (Mesocricetus auratus)
Assay: Plasma lipid levels in hamsters fed 0.1% cholesterol, oral treatment for 10 days
Type: in vivo
Settings: feed + 0.1% CH; for Plasma Cholesterol % / Plasma Triglycerides %: Cholesterol ctr. = 100; for Plasma Cholesterol / Plasma LDL / Plasma Triglycerides: plasma day 10
Experimental: The synergistic activity of the combination product of a compound of formula I with the other active ingredient was tested in an animal experiment. For this purpose, compound V1 from the compound of formula I was tested: Hamsters were used for the biological testing of the combination product of the invention. Male Syrian hamsters (Mesocricetus auratus) from 8 to 10 weeks of age were used for the experiment. The animals received a standard feed (Teklad 8604M) supplemented with 0.1% cholesterol. An additional normal control group received only standard feed. The test substances were administered orally by gavage once a day on 10 consecutive days, and the control group was treated with the vehicle. Feces were collected on days 5 and 6 of the experiment for bile acid analysis. Retroorbital blood was taken from the animals on day 10 of the experiment, and the lipid levels in the plasma were determined. Radioactive tracers were administered orally to the animals on day 9 of the experiment to determine the cholesterol absorption in analocy to the method described by Zilversmith et al. On day 11 of the experiment, the animals were sacrificed, and the animals' livers were removed for cholesterol analysis and preparation of microsomes. The 7α-hydroxylase activity was determined in the liver microsomes ex vivo by a modified method of Hylemon et al. [table] • K00004513 employed as stock solution (1 mg/ml in EtOH) • Substances are dissolved in 2% EtOH in a final concentration of 5%. • The solutions are then suspended with 0.4% potato starch. • Administration takes place 1× in the morning with 10 ml/kg Feed: Teklad 8604M CH: 032201 M Experimental animals: Male Syrian hamsters (Mesocricetus auratus) supplied by Harlan 100–120 g at the start of adaptation Measured Parameters: • Feed consumption • Animal weight (weekly) • Liver weight • Safety parameters (CH; TG; ALAT/ASAT; AP; HDULDL) • Liver cholesterol (HPLC)=1×500 mg in EtOH/KOH • CYP7 activity (liver microsomes as group pool of 0.5 g each—preparation on day of experiment) • Feces collected on day 5–7 for bile acid determination

Row | SMILES | Plasma Cholesterol % (0.1 mg/kg/d oral) | Plasma Triglycerides % (0.1 mg/kg/d oral) | Plasma Cholesterol (0.1 mg/kg/d oral) | Plasma LDL (0.1 mg/kg/d oral) | Plasma Triglycerides (0.1 mg/kg/d oral) | Plasma Cholesterol % (0.3 mg/kg/d oral) | Plasma Triglycerides % (0.3 mg/kg/d oral) | Plasma Cholesterol (0.3 mg/kg/d oral) | Plasma LDL (0.3 mg/kg/d oral) | Plasma Triglycerides (0.3 mg/kg/d oral) | Plasma Cholesterol % (1 mg/kg/d oral) | Plasma Triglycerides % (1 mg/kg/d oral) | Plasma Cholesterol (1 mg/kg/d oral) | Plasma LDL (1 mg/kg/d oral) | Plasma Triglycerides (1 mg/kg/d oral)
1 | O=C1[C@H](CC[C@H](O)c2ccc(F)cc2)[C@@H](c2ccc(O)cc2)N1c1ccc(F)cc1 [Ezetimibe, ezetimibe, reference compound] | 98% | 100% | 3.44 mmol/L | 1.04 mmol/L | 1.63 mmol/L |  |  |  |  |  |  |  |  |  | 
2 | CCCC[C@]1(CC)CS(=O)(=O)c2ccc(N(C)C)cc2[C@@H](c2cccc(NC(=O)CCCCNC[C@H](O)[C@@H](O)[C@H](O)[C@H](O)CO)c2)[C@H]1O [V1] | 120% | 115% | 4.20 mmol/L | 1.06 mmol/L | 1.87 mmol/L | 114% | 108% | 4.01 mmol/L | 1.18 mmol/L | 1.75 mmol/L | 92% | 124% | 3.23 mmol/L | 0.92 mmol/L | 2.02 mmol/L
